Data from US12428389B2, “Diarylamide compound and application thereof” (Sunshine Lake Pharma Co., Ltd., priority 2019, dated 2025).
Where two headings read alike, the source gives them in different places.

Legend:
[1] = molecular target: T1, UT-B (Mus musculus, UniProt Q8VHL0); assay: erythrocyte lysis model, mouse erythrocytes; type: cell-based; settings: concentration when the erythrocyte lysis rate of mice was 50%
T1 construct: endogenous in cells; host or cells: erythrocytes of C57 mice
T1 sequence (Q8VHL0 1-384): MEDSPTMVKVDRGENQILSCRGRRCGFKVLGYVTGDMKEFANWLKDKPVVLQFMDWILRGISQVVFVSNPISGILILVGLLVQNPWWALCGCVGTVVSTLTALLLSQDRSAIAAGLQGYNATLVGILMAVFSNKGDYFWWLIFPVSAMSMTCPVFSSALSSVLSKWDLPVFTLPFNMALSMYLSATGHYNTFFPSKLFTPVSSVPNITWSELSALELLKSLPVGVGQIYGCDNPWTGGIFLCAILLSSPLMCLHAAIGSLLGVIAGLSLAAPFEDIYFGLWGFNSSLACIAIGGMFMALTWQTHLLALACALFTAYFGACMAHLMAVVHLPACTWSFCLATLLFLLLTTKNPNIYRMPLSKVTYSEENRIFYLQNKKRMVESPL
Experimental: (§1) Erythrocyte lysis rate was calculated:
(§2) The formula for calculating the lysis rate percentage of erythrocytes, wherein Atest was the absorbance value of the test well, Aneg was the absorbance value of the negative control well, and Apos was the absorbance value of the positive control well. Erythrocyte lysis rate was calculated by measuring absorption at a wavelength of 710 nm.
(§3) The erythrocytes of three species of human, rats (SD rats) and mice (C57 mice) were taken, and urea transporter inhibitors were preliminarily screened from the above screening compound library by using the erythrocyte urea transporter inhibitor screening model.

[2] = molecular target: T2, UT-B (Rattus norvegicus, UniProt P97689); assay: erythrocyte lysis model, rat erythrocytes; type: cell-based, rats; settings: concentration when the erythrocyte lysis rate of rats was 50%; read-out: IC50 rats
T2 construct: endogenous in cells; host or cells: erythrocytes of SD rats
T2 sequence (P97689 1-384): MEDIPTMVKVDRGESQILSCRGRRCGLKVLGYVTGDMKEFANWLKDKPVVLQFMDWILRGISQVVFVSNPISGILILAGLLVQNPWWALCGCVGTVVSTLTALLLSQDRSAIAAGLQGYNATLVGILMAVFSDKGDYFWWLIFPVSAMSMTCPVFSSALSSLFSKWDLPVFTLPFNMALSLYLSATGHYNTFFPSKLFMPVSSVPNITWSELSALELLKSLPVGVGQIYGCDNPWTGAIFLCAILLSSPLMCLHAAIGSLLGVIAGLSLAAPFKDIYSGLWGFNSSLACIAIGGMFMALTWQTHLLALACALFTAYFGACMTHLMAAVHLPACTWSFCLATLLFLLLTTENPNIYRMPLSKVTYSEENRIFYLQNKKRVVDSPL
Experimental: as §1, §2, §3

[3] = molecular target: T3, human UT-B (Homo sapiens, UniProt Q13336); assay: erythrocyte lysis model, human erythrocytes; type: cell-based
T3 construct: endogenous in cells; host or cells: human erythrocytes
T3 sequence (Q13336 1-389): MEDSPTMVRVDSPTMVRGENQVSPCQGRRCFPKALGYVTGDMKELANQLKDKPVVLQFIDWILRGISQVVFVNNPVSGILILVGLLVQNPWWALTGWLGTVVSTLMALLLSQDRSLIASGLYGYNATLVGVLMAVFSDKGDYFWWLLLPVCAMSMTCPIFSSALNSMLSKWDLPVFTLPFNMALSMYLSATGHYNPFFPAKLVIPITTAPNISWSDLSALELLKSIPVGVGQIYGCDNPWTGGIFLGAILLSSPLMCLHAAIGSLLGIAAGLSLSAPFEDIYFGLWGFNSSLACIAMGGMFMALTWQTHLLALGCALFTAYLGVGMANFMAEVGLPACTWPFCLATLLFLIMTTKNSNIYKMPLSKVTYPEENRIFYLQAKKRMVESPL
Experimental: as §1, §2, §3

[4] = class of the IC50 to human UT-B, read-out: Activity level
[5] = concentration when the erythrocyte lysis rate of human was 50%, read-out: IC50 human

Compound	IC50 [1]	IC50 [2]	IC50 [3, 4]	IC50 [3, 5]
O=C(CN1CCOCC1)Nc1ccc(NC(=O)c2ccc([N+](=O)[O-])o2)cc1 [Example 72, N-(4-(2-morpholinyl)acetamidophenyl)-5-nitrofuran-2-carboxamide]	7380 nM	2870 nM	< 10000 nM	3050 nM
COc1ccccc1NC(=O)c1ccc([N+](=O)[O-])o1 [Example 29, N-(2-methoxyphenyl)-5-nitrofuran-2-carboxamide]	17100 nM	4110 nM	< 10000 nM	4870 nM
CC(=O)Nc1ccc(NC(=O)c2ccc([N+](=O)[O-])s2)cc1 [Example 9, N-(4-acetamidophenyl)-5-nitrothiophene-2-carboxamide]	18700 nM	20100 nM	< 10000 nM	2530 nM
O=C(Nc1ccc(CCO)cc1)c1ccc([N+](=O)[O-])o1 [Example 50, N-(4-(2-hydroxyethyl)phenyl)-5-nitrofuran-2-carboxamide]	10200 nM	8370 nM	< 10000 nM	5300 nM
CN(C)C(=O)c1cccc(NC(=O)c2ccc([N+](=O)[O-])o2)c1 [Example 54, N-(3-(dimethylcarbamoyl)phenyl)-5-nitrofuran-2-carboxamide]	310 nM	200 nM	< 10000 nM	740 nM
NC(=O)c1cccc(NC(=O)c2ccc([N+](=O)[O-])o2)c1 [Example 44, N-(3-carbamoylphenyl)-5-nitrofuran-2-carboxamide]	500 nM	170 nM	< 10000 nM	420 nM
Cn1cc(NC(=O)c2ccc([N+](=O)[O-])o2)cn1 [Example 22, N-(1-methyl-1H-pyrazol-4-yl)-5-nitrofuran-2-carboxamide]	33200 nM	9640 nM	10000 to 20000 nM	15800 nM
C#Cc1cccc(NC(=O)c2ccc([N+](=O)[O-])o2)c1 [Example 79, N-3-(ethynylphenyl)-5-nitrofuran-2-carboxamide]	4940 nM	1100 nM	< 10000 nM	820 nM
O=C(NCCN1CCOCC1)c1cccc(NC(=O)c2ccc([N+](=O)[O-])o2)c1 [Example 61, N-(3-((2-morpholinylethyl)carbamoyl)phenyl)-5-nitrofuran-2-carboxamide]	2610 nM	1090 nM	< 10000 nM	540 nM
O=C(NC1CCCCC1)c1cccc(NC(=O)c2ccc([N+](=O)[O-])o2)c1 [Example 58, N-(3-(cyclohexylcarbamoyl)phenyl)-5-nitrofuran-2-carboxamide]	2630 nM	900 nM	< 10000 nM	1770 nM
CNC(=O)c1cccc(NC(=O)c2ccc(C(C)=O)o2)c1 [Example 78, 3-(5-acetyl-2-furoyl)carbamamide]	520 nM	240 nM	< 10000 nM	130 nM
CN(C)CCNC(=O)c1cccc(NC(=O)c2ccc([N+](=O)[O-])o2)c1 [Example 60, N-(3-((2-dimethylaminoethyl)carbamoyl)phenyl)-5-nitrofuran-2-carboxamide]	740 nM	210 nM	< 10000 nM	3680 nM
CNC(=O)c1cc(NC(=O)c2ccc([N+](=O)[O-])o2)ccc1C [Example 63, N-(4-methyl-3-methylcarbamoylphenyl)-5-nitrofuran-2-carboxamide]	1230 nM	1760 nM	< 10000 nM	1700 nM
CCOC(=O)c1cccc(NC(=O)c2ccc([N+](=O)[O-])o2)c1 [Example 42, Ethyl 3-(5-nitrofuran-2-carboxamido)benzoate]	2300 nM	450 nM	< 10000 nM	470 nM
